Results from patent US20040185500A1, “Use of disease-associated gene” (priority 2001, published 2004).

Molecular target: T1, human CLCA4-expressing CHO cells (Homo sapiens, UniProt Q14CN2)
T1 construct: expressed in transfected cells
T1 sequence (Q14CN2 22-919): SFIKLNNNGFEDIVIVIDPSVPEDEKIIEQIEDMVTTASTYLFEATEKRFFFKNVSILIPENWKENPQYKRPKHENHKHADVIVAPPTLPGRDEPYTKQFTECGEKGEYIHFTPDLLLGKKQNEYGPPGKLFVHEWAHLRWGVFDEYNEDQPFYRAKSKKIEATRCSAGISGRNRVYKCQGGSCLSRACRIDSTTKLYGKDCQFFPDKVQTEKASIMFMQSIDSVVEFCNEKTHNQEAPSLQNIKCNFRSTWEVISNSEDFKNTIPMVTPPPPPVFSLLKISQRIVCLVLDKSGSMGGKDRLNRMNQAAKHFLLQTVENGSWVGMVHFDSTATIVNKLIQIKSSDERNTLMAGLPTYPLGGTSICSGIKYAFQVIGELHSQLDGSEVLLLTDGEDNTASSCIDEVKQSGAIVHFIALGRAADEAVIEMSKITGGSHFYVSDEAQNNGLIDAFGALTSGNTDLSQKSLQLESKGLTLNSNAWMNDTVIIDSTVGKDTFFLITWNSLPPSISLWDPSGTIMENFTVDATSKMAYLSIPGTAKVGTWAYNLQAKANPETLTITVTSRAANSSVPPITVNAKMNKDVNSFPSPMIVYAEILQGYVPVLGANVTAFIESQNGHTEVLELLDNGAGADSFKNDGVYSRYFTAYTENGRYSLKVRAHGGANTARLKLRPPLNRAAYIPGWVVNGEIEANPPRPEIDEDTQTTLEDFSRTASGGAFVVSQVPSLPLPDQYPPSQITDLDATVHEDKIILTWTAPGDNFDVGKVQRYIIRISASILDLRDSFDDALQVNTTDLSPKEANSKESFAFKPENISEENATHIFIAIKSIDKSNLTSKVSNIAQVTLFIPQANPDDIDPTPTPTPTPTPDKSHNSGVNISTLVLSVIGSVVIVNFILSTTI
Assay: Ca2+ dependent Cl- channel activity, FLIPR Membrane Potential Assay, ionomycin stimulation
Format: cell-based
Conditions: 2 μM ionomycin, compound added, then cells left for 10 min at room temperature, FIG. 3
Description: The ClCA4 expression plasmid pcDNA-hCLCA4 described in (2) above was introduced into CHO cells using FuGENE 6 (Roche Diagnostics) according to the manual accompanying it. The cells were subjected to selective culture in 1 mg/ml neomycin (G418) (Gibco BRL)-added MEM-α medium (Gibco BRL) for 10 days, and cells growing in this medium were obtained as CLCA4 expressing CHO cells. These CLCA4-expressing CHO cells and parent strain CHO cells were plated in 96-well black clear bottom plates (Corning) at 4×10^4 cells/well and cultured overnight. Cl^− channel activity was measured using FLIPR Membrane Potential Assay Kit (Molecular Device). A potential sensitive dye (Component A) diluted with 20 mM HEPES-containing HBSS buffer (Component B) was added to the plates at […] and reacted at 37° C. for 30 min. Then, the plates were set in FLIPR (Molecular Device) and, after addition of ionomycin (Wako Purechemical industries) at a final concentration of 2 μM, changes in fluorescence were observed as Cl^− channel activity. In both parent strain CHO cells and human CLCA4-expressing CHO cells, increase in fluorescence intensity was hardly recognized in the absence of stimulation. When stimulated with 2 μM ionomycin, increase in fluorescence intensity was observed only in human CLCA4-expressing CHO cells (FIG. 2). […]

Question: `O=C(O)c1cccnc1Nc1cccc(C(F)(F)F)c1` [niflumic acid] was tested. Which “increase in fluorescence intensity caused by stimulation with ionomycin (Cl- channel activity)” value did it give?
Answer: inhibited
